No end group written: not given here.
Test system: Human epithelial cells
Test: Wound healing scratch test, collective cell migration
Format: cell-based
Details: after 18 hours of culture
Protocol: Human epithelial cells were cultured with or without GFR-binding compounds as defined herein (SEQ ID NO: 28). A usual scratch test was applied (Nat Protoc 2: 329-333) on a monolayer of these epithelial cells in culture (FIG. 12a). An increase in the cell migration velocity for cells cultured with peptides was observed after 18 hours of culture. The cells migrated collectively and the communication between cells was maintained (FIG. 12b). In fact, the injury has been closed rapidly for the cells cultured with GFR-binding compounds as defined herein.

SEQ ID NO: 28: GFR-binding compound tested for wound healing; sequence not in this part (RPTQVQLRPVQVRKIEYVRKKPKLKKATV; also: cyclic, ring type not given here)
cell migration velocity: increase

Source: patent publication US20180305408A1, “COMPOUNDS FOR INDUCING TISSUE FORMATION AND USES THEREOF” (HISTIDE AG, priority 2015, published 2018)
